Reference: patent US5081107A, “Polypeptide compounds” (Imperial Chemical Industries PLC, priority 1988, dated 1992)
Non-standard residues stand in square brackets, D forms with d. Residues, ends and D or L forms follow the SMILES beside them. *: point of attachment. Isonicotinoyl = O=C(c1ccncc1)*; Cbz = O=C(OCc1ccccc1)*

Key:
[1] = system: bombesin-induced stimulation of the secretion of the enzyme amylase; settings: rat, in vivo
Protocol: (c) An in vivo test involving the measurement of the antagonism of the bombesin-induced stimulation of the secretion of the enzyme amylase into the pancreatic duct of the rat by a test compound administered orally, sub-cutaneously or intravenously. Bombesin and the test compound can be administered concomitantly or the test compound can be predosed at any convenient interval, for example 30, 60, 90, 120, 150 or 180 minutes, before bombesin is dosed. Amylase was measured by analysis of the conversion of starch into maltose, on incubation of the starch/amylase mixture at 30° C. for 15 minutes, using a spectrophotometric assay as originally described by P. Bernfield in `Methods in Enzymology` Vol. I, p17 (Editors Colowick and Kaplan, Academic Press, New York, 1955). Bombesin (5 micrograms/kg, intravenously) causes a large, but submaximal, increase of amylase secretion within 30 minutes.

[2] = system: mouse Swiss 3T3-fibroblast cells; format: cell-based; settings: 3 h
Protocol: (b) An in vitro assay which assesses the ability of a test compound to inhibit the Neuromedin C stimulated mitogenesis of mouse Swiss 3T3-fibroblast cells as determined by the uptake of [^3 H]-thymidine. The test is similar to those described by N. Corps., L. Rees and K. Brown, Biochem. Journal, 1985, 231, 781 and I. Zachary and E. Rozengurt, Proc. Nat. Acad. Sci. USA, 1985, 82, 7616, except that GRP (18-27) (0.2 or 0.4nM) was used to stimulate growth and the test compounds were dissolved in an assay medium containing 0.1% bovine serum albumin and 0.4% dimethylsulphoxide and […]

[3] = molecular target: T1, bombesin receptor of mouse Swiss 3T3-fibroblast cells (Mus musculus, UniProt P21729); experiment: Test (a): in vitro binding assay, displacement of [I125]GRP; settings: ambient temperature, 1 hour
T1 construct: the bombesin receptor of mouse Swiss 3T3-fibroblast cells; endogenous in cells; host or cells: mouse Swiss 3T3 fibroblast cells
Protocol: (a) An in vitro binding assay which assesses the ability of a test compound to displace radiolabelled gastrin releasing peptide ([I^125 ]GRP) from the bombesin receptor of mouse Swiss 3T3-fibroblast cells. The test is similar to that described by I. Zachary and E. Rozengurt, Proc. Nat. Acad. Sci. USA, 1985, 82, 7616, except that the cells are incubated at ambient temperature for 1 hour;

[4] = system: bombesin-induced hypothermia; settings: rat; cited from earlier work
[5] = system: guinea pig pancreatic acini; settings: cited from earlier work

T1 sequence (P21729 whole entry): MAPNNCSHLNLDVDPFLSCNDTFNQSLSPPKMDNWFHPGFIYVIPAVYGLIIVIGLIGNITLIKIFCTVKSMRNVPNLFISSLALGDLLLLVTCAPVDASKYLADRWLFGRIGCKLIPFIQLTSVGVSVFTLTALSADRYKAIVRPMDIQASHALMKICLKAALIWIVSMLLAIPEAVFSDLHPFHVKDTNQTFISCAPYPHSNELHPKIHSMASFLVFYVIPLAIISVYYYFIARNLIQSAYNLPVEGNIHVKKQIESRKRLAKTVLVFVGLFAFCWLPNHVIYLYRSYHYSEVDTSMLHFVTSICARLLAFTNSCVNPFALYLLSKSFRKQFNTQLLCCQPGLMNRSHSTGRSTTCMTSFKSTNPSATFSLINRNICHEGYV

IC50 in test (c) [1]	Compound	IC50 [2]	inhibition of bombesin-stimulated secretion of amylase [5]	further results
< 0.5 mg/kg	COC(=O)[C@H](CC(C)C)NC(=O)[C@H](Cc1c[nH]cn1)NC(=O)[C@@H](C)NC(=O)[C@@H](NC(=O)[C@H](C)NC(=O)[C@H](Cc1c[nH]c2ccccc12)NC(=O)[C@H](Cc1c[nH]cn1)NC(=O)c1ccncc1)C(C)C [4-Pyridyl--CO--His--Trp--Ala--Val--D--Ala--His--Leu--OMe] (Isonicotinoyl-HWAV[dA]HL-OMe)	0.7 nM		IC50 [3]: 1.5 nM
< 0.02 mg/kg	CNC(=O)[C@H](CC(C)C)NC(=O)[C@H](CCCCNC(=O)OCc1ccccc1)NC(=O)[C@@H](C)NC(=O)[C@@H](NC(=O)[C@H](C)NC(=O)[C@H](Cc1c[nH]c2ccccc12)NC(=O)[C@H](Cc1c[nH]cn1)NC(=O)c1ccncc1)C(C)C [4-Pyridyl-CO--His--Trp--Ala--Val--D-Ala--Lys(Z)--Leu--NHMe] (Isonicotinoyl-HWAV[dA]K(Cbz)L-NHMe)	0.2 nM		
	[D--Glp^7, D--Ala^11, Ala^14 ]bombesin (7-14)			antagonism of bombesin-induced hypothermia [4]: partial antagonist
	[D--Phe^12, Leu^14 ]bombesin		inhibited	
	[D-Phe^12 ]bombesin		inhibited	
	[Tyr^4, D--Phe^12 ]bombesin		inhibited	
